Source: PMC3089805 (Chemmedchem, 2010)
Converted amounts (≈) assume the structure as drawn. Marks after values point to notes of the source that are not given here.

System: S. aureus (MRSA)
Assay: MIC determination, liquid microdilution, S. aureus
Format: cell-based
Conditions: Staphylococcus aureus, read-out: MIC S. aureus (MRSA)

Compound	MIC [µM]
O=C(Nc1ncc([N+](=O)[O-])s1)c1cccnc1F [Analogue 59, 2-Fluoro-N-(5-nitrothiazol-2-yl)nicotinamide]	119 (≈ 32 µg/mL)
CC(=O)Nc1ncc([N+](=O)[O-])s1 [Analogue 48, N-(5-Nitrothiazol-2-yl)acetamide]	171 (≈ 32 µg/mL)
O=C(Nc1ncc([N+](=O)[O-])s1)c1sc2cc(F)ccc2c1Cl [Analogue 86, 3-Chloro-6-fluoro-N-(5-nitrothiazol-2-yl)benzo[b]thiophene-2-carboxamide]	2.1 (≈ 0.751 µg/mL)
O=C(Nc1ncc([N+](=O)[O-])s1)c1cccc(OC(F)(F)F)c1 [Analogue 31, N-(5-Nitrothiazol-2-yl)-3-(trifluoromethoxy)benzamide]	6 (≈ 2 µg/mL)
O=C(Nc1ncc([N+](=O)[O-])s1)c1cccc(C(F)(F)F)c1Cl [Analogue 40, 2-Chloro-N-(5-nitrothiazol-2-yl)-3-(trifluoromethyl)benzamide]	11.4 (≈ 4.01 µg/mL)
CCCCCC(=O)Nc1ncc([N+](=O)[O-])s1 [Analogue 50, N-(5-Nitrothiazol-2-yl)hexanamide]	132 (≈ 32 µg/mL)
O=C(Nc1ncc([N+](=O)[O-])s1)c1ccc(-c2cccc(C(F)(F)F)c2)o1 [Analogue 68, N-(5-Nitrothiazol-2-yl)-5-(3-(trifluoromethyl)phenyl)furan-2-carboxamide]	11.4 (≈ 4.37 µg/mL)
O=C(Nc1ncc([N+](=O)[O-])s1)c1cccc([N+](=O)[O-])c1 [Analogue 26, 3-Nitro-N-(5-nitrothiazol-2-yl)benzamide]	10.2 (≈ 3 µg/mL)
O=C(Nc1ncc([N+](=O)[O-])s1)c1ccc([N+](=O)[O-])o1 [Analogue 64, 5-Nitro-N-(5-nitrothiazol-2-yl)furan-2-carboxamide]	113 (≈ 32 µg/mL)
O=C(Nc1ncc([N+](=O)[O-])s1)c1cc2ccccc2s1 [Analogue 84, N-(5-Nitrothiazol-2-yl)benzo[b]thiophene-2-carboxamide]	6.6 (≈ 2.02 µg/mL)

System: not listed separately
Assay: Human foreskin cell toxicity
Format: cell-based
Conditions: human

Compound	CC50 at 48 h [µM]
O=C(Nc1ncc([N+](=O)[O-])s1)c1cccc([N+](=O)[O-])c1 [Analogue 26, 3-Nitro-N-(5-nitrothiazol-2-yl)benzamide]	27.2

Same assay, conditions: human, human foreskin cells

Compound	CC50 at 48 h [µM]
O=C(Nc1ncc([N+](=O)[O-])s1)c1cccnc1F [Analogue 59, 2-Fluoro-N-(5-nitrothiazol-2-yl)nicotinamide]	> 59.7
CC(=O)Nc1ncc([N+](=O)[O-])s1 [Analogue 48, N-(5-Nitrothiazol-2-yl)acetamide]	> 85.5
O=C(Nc1ncc([N+](=O)[O-])s1)c1sc2cc(F)ccc2c1Cl [Analogue 86, 3-Chloro-6-fluoro-N-(5-nitrothiazol-2-yl)benzo[b]thiophene-2-carboxamide]	33.5
O=C(Nc1ncc([N+](=O)[O-])s1)c1ccc(F)cc1 [Analogue 8, 4-Fluoro-N-(5-nitrothiazol-2-yl)benzamide]	29.9
O=C(Nc1ncc([N+](=O)[O-])s1)c1cccc(OC(F)(F)F)c1 [Analogue 31, N-(5-Nitrothiazol-2-yl)-3-(trifluoromethoxy)benzamide]	> 48
O=C(Nc1ncc([N+](=O)[O-])s1)c1cccs1 [Analogue 76, N-(5-Nitrothiazol-2-yl)thiophene-2-carboxamide]	> 62.7
O=C(Nc1ncc([N+](=O)[O-])s1)c1cccc(C(F)(F)F)c1Cl [Analogue 40, 2-Chloro-N-(5-nitrothiazol-2-yl)-3-(trifluoromethyl)benzamide]	> 45.5
CCCCCC(=O)Nc1ncc([N+](=O)[O-])s1 [Analogue 50, N-(5-Nitrothiazol-2-yl)hexanamide]	> 65.8
O=C(Nc1ncc([N+](=O)[O-])s1)c1sc2ccccc2c1Cl [Analogue 85, 3-Chloro-N-(5-nitrothiazol-2-yl)benzo[b]thiophene-2-carboxamide]	> 47.1
O=C(Nc1ncc([N+](=O)[O-])s1)c1ccc(-c2cccc(C(F)(F)F)c2)o1 [Analogue 68, N-(5-Nitrothiazol-2-yl)-5-(3-(trifluoromethyl)phenyl)furan-2-carboxamide]	> 41.7
O=C(Nc1ncc([N+](=O)[O-])s1)c1ccoc1 [Analogue 60, N-(5-Nitrothiazol-2-yl)furan-3-carboxamide]	> 66.9
O=C(Nc1ncc([N+](=O)[O-])s1)c1ccc([N+](=O)[O-])o1 [Analogue 64, 5-Nitro-N-(5-nitrothiazol-2-yl)furan-2-carboxamide]	> 56.3
O=C(Nc1ncc([N+](=O)[O-])s1)c1cc2ccccc2s1 [Analogue 84, N-(5-Nitrothiazol-2-yl)benzo[b]thiophene-2-carboxamide]	> 52.6

System: C. jejuni strain H840
Assay: MIC determination, liquid microdilution, C. jejuni
Format: cell-based
Conditions: Campylobacter jejuni, H840, 27 h, read-out: MIC C. jejuni

Compound	MIC [µM]
CC(=O)Nc1ncc([N+](=O)[O-])s1 [Analogue 48, N-(5-Nitrothiazol-2-yl)acetamide]	10.7 (≈ 2 µg/mL)
O=C(Nc1ncc([N+](=O)[O-])s1)c1sc2cc(F)ccc2c1Cl [Analogue 86, 3-Chloro-6-fluoro-N-(5-nitrothiazol-2-yl)benzo[b]thiophene-2-carboxamide]	5.6 (≈ 2 µg/mL)
O=C(Nc1ncc([N+](=O)[O-])s1)c1ccc(F)cc1 [Analogue 8, 4-Fluoro-N-(5-nitrothiazol-2-yl)benzamide]	2.8 (≈ 0.748 µg/mL)
O=C(Nc1ncc([N+](=O)[O-])s1)c1cccc(OC(F)(F)F)c1 [Analogue 31, N-(5-Nitrothiazol-2-yl)-3-(trifluoromethoxy)benzamide]	9 (≈ 3 µg/mL)
CCCCCC(=O)Nc1ncc([N+](=O)[O-])s1 [Analogue 50, N-(5-Nitrothiazol-2-yl)hexanamide]	2.1 (≈ 0.511 µg/mL)
O=C(Nc1ncc([N+](=O)[O-])s1)c1ccc(-c2cccc(C(F)(F)F)c2)o1 [Analogue 68, N-(5-Nitrothiazol-2-yl)-5-(3-(trifluoromethyl)phenyl)furan-2-carboxamide]	8.5 (≈ 3.26 µg/mL)
O=C(Nc1ncc([N+](=O)[O-])s1)c1cccc([N+](=O)[O-])c1 [Analogue 26, 3-Nitro-N-(5-nitrothiazol-2-yl)benzamide]	27.2 (≈ 8 µg/mL)
O=C(Nc1ncc([N+](=O)[O-])s1)c1ccc([N+](=O)[O-])o1 [Analogue 64, 5-Nitro-N-(5-nitrothiazol-2-yl)furan-2-carboxamide]	7 (≈ 1.99 µg/mL)
O=C(Nc1ncc([N+](=O)[O-])s1)c1cc2ccccc2s1 [Analogue 84, N-(5-Nitrothiazol-2-yl)benzo[b]thiophene-2-carboxamide]	9.8 (≈ 2.99 µg/mL)

System: C. difficile VPI 10463
Assay: MIC determination, agar dilution, C. difficile
Format: cell-based, Clostridium difficile
Conditions: Clostridioides difficile, VPI10463, 18 h, read-out: MIC C. difficile

Compound	MIC [µM]
O=C(Nc1ncc([N+](=O)[O-])s1)c1cccnc1F [Analogue 59, 2-Fluoro-N-(5-nitrothiazol-2-yl)nicotinamide]	2.8 (≈ 0.751 µg/mL)
O=C(Nc1ncc([N+](=O)[O-])s1)c1ccc(F)cc1 [Analogue 8, 4-Fluoro-N-(5-nitrothiazol-2-yl)benzamide]	3.3 (≈ 0.882 µg/mL)
O=C(Nc1ncc([N+](=O)[O-])s1)c1cccs1 [Analogue 76, N-(5-Nitrothiazol-2-yl)thiophene-2-carboxamide]	1.5 (≈ 0.383 µg/mL)
CCCCCC(=O)Nc1ncc([N+](=O)[O-])s1 [Analogue 50, N-(5-Nitrothiazol-2-yl)hexanamide]	8.2 (≈ 1.99 µg/mL)
O=C(Nc1ncc([N+](=O)[O-])s1)c1ccoc1 [Analogue 60, N-(5-Nitrothiazol-2-yl)furan-3-carboxamide]	1.7 (≈ 0.407 µg/mL)

System: H. pylori PFOR enzyme
Assay: Direct PFOR enzyme assay
Format: biochemical
Conditions: [Drug] = 40 μM

Compound	PFOR Inhibition
O=C(Nc1ncc([N+](=O)[O-])s1)c1cccnc1F [Analogue 59, 2-Fluoro-N-(5-nitrothiazol-2-yl)nicotinamide]	61 ± 13%
O=C(Nc1ncc([N+](=O)[O-])s1)c1ccc(F)cc1 [Analogue 8, 4-Fluoro-N-(5-nitrothiazol-2-yl)benzamide]	85 ^b %
O=C(Nc1ncc([N+](=O)[O-])s1)c1cccs1 [Analogue 76, N-(5-Nitrothiazol-2-yl)thiophene-2-carboxamide]	56 ± 6 ^b %
CCCCCC(=O)Nc1ncc([N+](=O)[O-])s1 [Analogue 50, N-(5-Nitrothiazol-2-yl)hexanamide]	64 ± 6 ^b %
O=C(Nc1ncc([N+](=O)[O-])s1)c1ccoc1 [Analogue 60, N-(5-Nitrothiazol-2-yl)furan-3-carboxamide]	58 ± 2 ^b %

System: S. epidermidis
Assay: MIC determination, liquid microdilution, S. epidermidis
Format: cell-based
Conditions: Staphylococcus epidermidis, read-out: MIC S. epidermidis

Compound	MIC [µM]
O=C(Nc1ncc([N+](=O)[O-])s1)c1cccnc1F [Analogue 59, 2-Fluoro-N-(5-nitrothiazol-2-yl)nicotinamide]	119 (≈ 32 µg/mL)
CC(=O)Nc1ncc([N+](=O)[O-])s1 [Analogue 48, N-(5-Nitrothiazol-2-yl)acetamide]	21.4 (≈ 4.01 µg/mL)
O=C(Nc1ncc([N+](=O)[O-])s1)c1sc2cc(F)ccc2c1Cl [Analogue 86, 3-Chloro-6-fluoro-N-(5-nitrothiazol-2-yl)benzo[b]thiophene-2-carboxamide]	5.6 (≈ 2 µg/mL)
O=C(Nc1ncc([N+](=O)[O-])s1)c1cccc(OC(F)(F)F)c1 [Analogue 31, N-(5-Nitrothiazol-2-yl)-3-(trifluoromethoxy)benzamide]	12 (≈ 4 µg/mL)
O=C(Nc1ncc([N+](=O)[O-])s1)c1cccs1 [Analogue 76, N-(5-Nitrothiazol-2-yl)thiophene-2-carboxamide]	31.3 (≈ 7.99 µg/mL)
O=C(Nc1ncc([N+](=O)[O-])s1)c1cccc(C(F)(F)F)c1Cl [Analogue 40, 2-Chloro-N-(5-nitrothiazol-2-yl)-3-(trifluoromethyl)benzamide]	11.4 (≈ 4.01 µg/mL)
O=C(Nc1ncc([N+](=O)[O-])s1)c1ccc(-c2cccc(C(F)(F)F)c2)o1 [Analogue 68, N-(5-Nitrothiazol-2-yl)-5-(3-(trifluoromethyl)phenyl)furan-2-carboxamide]	5.7 (≈ 2.18 µg/mL)
O=C(Nc1ncc([N+](=O)[O-])s1)c1ccoc1 [Analogue 60, N-(5-Nitrothiazol-2-yl)furan-3-carboxamide]	33.4 (≈ 7.99 µg/mL)
O=C(Nc1ncc([N+](=O)[O-])s1)c1cccc([N+](=O)[O-])c1 [Analogue 26, 3-Nitro-N-(5-nitrothiazol-2-yl)benzamide]	10.2 (≈ 3 µg/mL)
O=C(Nc1ncc([N+](=O)[O-])s1)c1ccc([N+](=O)[O-])o1 [Analogue 64, 5-Nitro-N-(5-nitrothiazol-2-yl)furan-2-carboxamide]	28.1 (≈ 7.99 µg/mL)
O=C(Nc1ncc([N+](=O)[O-])s1)c1cc2ccccc2s1 [Analogue 84, N-(5-Nitrothiazol-2-yl)benzo[b]thiophene-2-carboxamide]	13.1 (≈ 4 µg/mL)

System: H. pylori strain 26695
Assay: MIC determination, liquid microdilution, H. pylori
Format: cell-based
Conditions: Helicobacter pylori, 26695, 27 h, read-out: MIC H. pylori

Compound	MIC [µM]
CC(=O)Nc1ncc([N+](=O)[O-])s1 [Analogue 48, N-(5-Nitrothiazol-2-yl)acetamide]	0.7 (≈ 0.131 µg/mL)
O=C(Nc1ncc([N+](=O)[O-])s1)c1sc2cc(F)ccc2c1Cl [Analogue 86, 3-Chloro-6-fluoro-N-(5-nitrothiazol-2-yl)benzo[b]thiophene-2-carboxamide]	1 (≈ 0.358 µg/mL)
O=C(Nc1ncc([N+](=O)[O-])s1)c1ccc(F)cc1 [Analogue 8, 4-Fluoro-N-(5-nitrothiazol-2-yl)benzamide]	0.9 (≈ 0.241 µg/mL)
O=C(Nc1ncc([N+](=O)[O-])s1)c1cccc(OC(F)(F)F)c1 [Analogue 31, N-(5-Nitrothiazol-2-yl)-3-(trifluoromethoxy)benzamide]	1.1 (≈ 0.367 µg/mL)
O=C(Nc1ncc([N+](=O)[O-])s1)c1cccc(C(F)(F)F)c1Cl [Analogue 40, 2-Chloro-N-(5-nitrothiazol-2-yl)-3-(trifluoromethyl)benzamide]	0.9 (≈ 0.317 µg/mL)
CCCCCC(=O)Nc1ncc([N+](=O)[O-])s1 [Analogue 50, N-(5-Nitrothiazol-2-yl)hexanamide]	0.5 (≈ 0.122 µg/mL)
O=C(Nc1ncc([N+](=O)[O-])s1)c1ccc(-c2cccc(C(F)(F)F)c2)o1 [Analogue 68, N-(5-Nitrothiazol-2-yl)-5-(3-(trifluoromethyl)phenyl)furan-2-carboxamide]	1.1 (≈ 0.422 µg/mL)
O=C(Nc1ncc([N+](=O)[O-])s1)c1cccc([N+](=O)[O-])c1 [Analogue 26, 3-Nitro-N-(5-nitrothiazol-2-yl)benzamide]	1.3 (≈ 0.383 µg/mL)
O=C(Nc1ncc([N+](=O)[O-])s1)c1ccc([N+](=O)[O-])o1 [Analogue 64, 5-Nitro-N-(5-nitrothiazol-2-yl)furan-2-carboxamide]	21.1 (≈ 6 µg/mL)
O=C(Nc1ncc([N+](=O)[O-])s1)c1cc2ccccc2s1 [Analogue 84, N-(5-Nitrothiazol-2-yl)benzo[b]thiophene-2-carboxamide]	2.5 (≈ 0.763 µg/mL)
